In patent US10155767B2, “Therapeutic agent of acute myeloid leukemia containing 1,3,7-trisubstituted 3,4-dihydropyrimido[4,5-D]pyrimidine-2(1H)-one derivatives” (KOREA INSTITUTE OF SCIENCE AND TECHNOLOGY, priority 2016, dated 2018):

What was measured:
OCI-AML3 (N-RasQ61L) = test: Proliferation inhibitory activity, OCI-AML3 cell line; type: cell-based; details: Homo sapiens, OCI-AML-3; OCI-AML3 (mt-NRAS) cell line; read-out: Proliferation inhibitory ability (GI50, μM) OCI-AML3 (N-RasQ61L)
Method: (§1) With respect to each of the compounds synthesized in Synthesis Examples, GI50 values were calculated by measuring proliferation inhibitory abilities for mt-NRAS (G12D) Ba/F3, U937 (wt-NRAS), and OCI-AML3 (mt-NRAS) cell lines.

U937 (N-Ras WT) = test: Proliferation inhibitory activity, U937 cell line; type: cell-based; details: Homo sapiens, U-937; U937 (wt-NRAS) cell line; read-out: Proliferation inhibitory ability (GI50, μM) U937 (N-Ras WT)
Method: as §1

Ba/F3 (N-Ras G12D) = test: Proliferation inhibitory activity, mt-NRAS (G12D) Ba/F3 cell line; type: cell-based; details: Mus musculus, BaF3, read-out: Proliferation inhibitory ability (GI50, μM) Ba/F3 (N-Ras G12D)
Method: as §1

ACK1 = ACK1 (Homo sapiens, UniProt Q07912); test: Kinase inhibitory activity, ACK1; type: biochemical
Method: (§2) With respect to the compounds of the present invention, IC50 values were calculated by measuring inhibitory ability for two kinases of GCK and ACK1.

GCK = biological target: T1, GCK (Homo sapiens, UniProt Q12851); test: Kinase inhibitory activity, GCK; type: biochemical
T1 sequence (Q12851 1-820): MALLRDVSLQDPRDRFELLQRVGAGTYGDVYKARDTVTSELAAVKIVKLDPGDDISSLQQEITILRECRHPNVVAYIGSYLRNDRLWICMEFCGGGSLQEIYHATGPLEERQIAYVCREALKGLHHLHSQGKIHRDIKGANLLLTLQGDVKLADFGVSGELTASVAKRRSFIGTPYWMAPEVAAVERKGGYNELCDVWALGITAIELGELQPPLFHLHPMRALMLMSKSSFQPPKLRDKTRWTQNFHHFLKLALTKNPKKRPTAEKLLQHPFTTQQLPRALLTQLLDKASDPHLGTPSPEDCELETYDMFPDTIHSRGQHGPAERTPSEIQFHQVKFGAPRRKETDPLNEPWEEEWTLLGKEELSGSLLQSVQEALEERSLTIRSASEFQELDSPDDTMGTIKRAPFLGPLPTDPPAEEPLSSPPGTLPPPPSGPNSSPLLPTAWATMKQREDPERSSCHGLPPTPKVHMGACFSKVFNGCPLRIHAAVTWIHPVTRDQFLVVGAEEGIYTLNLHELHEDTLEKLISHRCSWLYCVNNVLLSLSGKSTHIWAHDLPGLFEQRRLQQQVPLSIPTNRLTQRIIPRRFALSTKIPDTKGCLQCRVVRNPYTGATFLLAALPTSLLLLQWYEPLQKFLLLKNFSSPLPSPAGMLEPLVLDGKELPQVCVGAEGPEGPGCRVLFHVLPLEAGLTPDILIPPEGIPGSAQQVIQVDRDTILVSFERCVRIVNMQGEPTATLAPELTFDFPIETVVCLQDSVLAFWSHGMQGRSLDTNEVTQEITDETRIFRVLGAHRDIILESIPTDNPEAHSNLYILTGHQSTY
Method: as §2

ACK1, sequence (Q07912 whole entry): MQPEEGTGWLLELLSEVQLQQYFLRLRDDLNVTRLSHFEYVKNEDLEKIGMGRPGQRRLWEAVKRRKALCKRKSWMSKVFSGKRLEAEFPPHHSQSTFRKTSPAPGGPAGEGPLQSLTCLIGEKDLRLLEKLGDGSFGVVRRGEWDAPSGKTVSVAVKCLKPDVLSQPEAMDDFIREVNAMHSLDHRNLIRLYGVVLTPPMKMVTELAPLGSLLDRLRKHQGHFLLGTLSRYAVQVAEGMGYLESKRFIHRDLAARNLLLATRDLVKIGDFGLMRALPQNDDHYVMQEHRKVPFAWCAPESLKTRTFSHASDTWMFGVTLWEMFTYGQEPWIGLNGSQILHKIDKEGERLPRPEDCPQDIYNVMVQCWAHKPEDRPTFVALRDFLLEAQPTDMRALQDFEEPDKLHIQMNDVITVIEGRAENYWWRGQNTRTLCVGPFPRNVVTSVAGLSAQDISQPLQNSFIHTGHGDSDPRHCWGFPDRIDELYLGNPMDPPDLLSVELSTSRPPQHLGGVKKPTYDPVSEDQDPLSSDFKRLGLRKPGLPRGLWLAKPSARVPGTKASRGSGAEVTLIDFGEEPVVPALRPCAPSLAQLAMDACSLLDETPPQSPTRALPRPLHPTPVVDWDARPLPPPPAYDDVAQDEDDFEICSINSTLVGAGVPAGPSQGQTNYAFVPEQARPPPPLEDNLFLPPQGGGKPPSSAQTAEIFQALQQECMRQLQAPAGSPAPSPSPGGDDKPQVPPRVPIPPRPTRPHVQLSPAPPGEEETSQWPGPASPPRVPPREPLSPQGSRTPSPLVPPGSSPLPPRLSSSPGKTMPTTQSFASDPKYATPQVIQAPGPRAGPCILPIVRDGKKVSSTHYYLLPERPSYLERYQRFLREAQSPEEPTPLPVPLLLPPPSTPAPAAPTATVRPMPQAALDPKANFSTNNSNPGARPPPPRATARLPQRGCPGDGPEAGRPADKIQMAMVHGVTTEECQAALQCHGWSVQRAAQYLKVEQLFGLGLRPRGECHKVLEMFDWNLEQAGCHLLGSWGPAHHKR

| GI50 (OCI-AML3 (N-RasQ61L)) [µM] | GI50 (U937 (N-Ras WT)) [µM] | GI50 (Ba/F3 (N-Ras G12D)) [µM] | IC50 (ACK1) [nM] | IC50 (GCK) [nM] | Structure (SMILES) |
| --- | --- | --- | --- | --- | --- |
| 0.2 to 0.7 | ≥ 2 | 0.2 to 0.7 | 30 to 45 | 45 to 100 | Cc1ccc(NC(=O)c2cccc(C(F)(F)F)c2)cc1N1Cc2cnc(Nc3ccccc3)nc2N(C)C1=O [Compound 4, N-(4-methyl-3-(1-methyl-2-oxo-7-(phenylamino)-1,4-dihydropyrimido[4,5-d]pyrimidin-3(2H)-yl)phenyl)-3-(trifluoromethyl)benzamide] |
| ≥ 2 | ≥ 2 | 0.2 to 0.7 | 45 to 100 | ≥ 300 | Cc1ccc(NC(=O)c2cccc(C(F)(F)F)c2)cc1N1Cc2cnc(NC3CCCCC3)nc2N(C)C1=O [Compound 5, N-(3-(7-(cyclohexylamino)-1-methyl-2-oxo-1,4-dihydropyrimido[4,5-d]pyrimidin-3(2H)-yl)-4-methylphenyl)-3-(trifluoromethyl)benzamide] |
| 0.2 to 0.7 | 0.7 to 1.2 | < 0.2 | < 30 | < 30 | Cc1ccc(NC(=O)c2cccc(C(F)(F)F)c2)cc1N1Cc2cnc(Nc3cnn(C)c3)nc2N(C)C1=O [Compound 3] |
| 0.7 to 1.2 | ≥ 2 | ≥ 2 | < 30 | 30 to 45 | Cc1ccc(NC(=O)c2cccc(C(F)(F)F)c2)cc1N1Cc2cnc(NCCO)nc2N(C)C1=O [Compound 6, N-(3-(7-((2-hydroxylethyl)amino)-1-methyl-2-oxo-1,4-dihydropyrimido[4,5-d]pyrimidin-3(2H)-yl)-4-methylphenyl)-3-(trifluoromethyl)benzamide] |
| 0.2 to 0.7 | ≥ 2 | 0.2 to 0.7 | 30 to 45 | 30 to 45 | Cc1ccc(NC(=O)c2cccc(C(F)(F)F)c2)cc1N1Cc2cnc(NC3CC3)nc2N(C)C1=O [Compound 7, N-(3-(7-(cyclopropylamino)-1-methyl-2-oxo-1,4-dihydropyrimido[4,5-d]pyrimidin-3(2H)-yl)-4-methylphenyl)-3-(trifluoromethyl)benzamide] |
| < 0.2 | 1.2 to 2 | < 0.2 | < 30 | < 30 | CCN1CCN(c2ccc(Nc3ncc4c(n3)N(C)C(=O)N(c3cc(NC(=O)c5cccc(C(F)(F)F)c5)ccc3C)C4)cn2)CC1 [Compound 1, N-(3-(7-((6-(4-ethylpiperazin-1-yl)pyridin-3-yl)amino)-1-methyl-2-oxo-1,4-dihydropyrimido[4,5-d]pyrimidin-3-(2H)-yl)-4-methylphenyl)-3-(trifluoromethyl)benzamide] |
| < 0.2 | < 0.2 | < 0.2 | 45 to 100 | < 30 | CCN1CCN(c2cccc(Nc3ncc4c(n3)N(C)C(=O)N(c3cc(NC(=O)c5cccc(C(F)(F)F)c5)ccc3C)C4)c2)CC1 [Compound 2, N-(3-(7-((3-(4-ethylpiperazin-1-yl)phenyl)amino)-1-methyl-2-oxo-1,4-dihydropyrimido[4,5-d]pyrimidin-3-(2H)-yl)-4-methylphenyl)-3-(trifluoromethyl)benzamide] |
